The values below come from ChEMBL document CHEMBL1201862, “PubChem BioAssay data set” (2004).

Calls of active or inactive are those of the source. Bounds are passed on as bounds.

The target of assay [1] is T1, Tyrosine-protein phosphatase non-receptor type 7 (Homo sapiens, UniProt P35236).
T1 sequence (P35236 whole entry): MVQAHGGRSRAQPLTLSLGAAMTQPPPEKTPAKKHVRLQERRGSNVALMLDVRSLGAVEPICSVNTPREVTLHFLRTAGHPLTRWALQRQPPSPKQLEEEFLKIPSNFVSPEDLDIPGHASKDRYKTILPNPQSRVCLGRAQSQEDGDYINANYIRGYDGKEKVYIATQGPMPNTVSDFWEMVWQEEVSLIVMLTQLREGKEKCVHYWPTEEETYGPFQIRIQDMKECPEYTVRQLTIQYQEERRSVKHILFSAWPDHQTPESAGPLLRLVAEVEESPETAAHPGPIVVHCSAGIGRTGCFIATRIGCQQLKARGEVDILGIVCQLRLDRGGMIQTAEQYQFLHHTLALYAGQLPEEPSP
The experiment in a line: redox-dependent HePTP inhibition, mechanism study, biochemical, fluorescence (AID 2068). It counts as functional.

The target in assay [2] is Glyceraldehyde-3-phosphate dehydrogenase (Homo sapiens, UniProt P04406).
Sequence of Glyceraldehyde-3-phosphate dehydrogenase (P04406 whole entry): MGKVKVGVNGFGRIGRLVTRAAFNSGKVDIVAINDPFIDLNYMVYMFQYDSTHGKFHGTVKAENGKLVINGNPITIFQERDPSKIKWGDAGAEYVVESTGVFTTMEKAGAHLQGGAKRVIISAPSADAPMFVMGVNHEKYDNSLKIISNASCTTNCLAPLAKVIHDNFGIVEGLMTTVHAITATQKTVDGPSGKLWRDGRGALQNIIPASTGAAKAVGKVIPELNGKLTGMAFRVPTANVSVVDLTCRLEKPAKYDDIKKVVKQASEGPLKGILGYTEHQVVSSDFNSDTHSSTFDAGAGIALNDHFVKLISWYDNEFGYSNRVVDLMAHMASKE
Assay [3] addresses T2, Dual specificity protein phosphatase 6 (Rattus norvegicus, UniProt Q64346).
T2 sequence (Q64346 whole entry): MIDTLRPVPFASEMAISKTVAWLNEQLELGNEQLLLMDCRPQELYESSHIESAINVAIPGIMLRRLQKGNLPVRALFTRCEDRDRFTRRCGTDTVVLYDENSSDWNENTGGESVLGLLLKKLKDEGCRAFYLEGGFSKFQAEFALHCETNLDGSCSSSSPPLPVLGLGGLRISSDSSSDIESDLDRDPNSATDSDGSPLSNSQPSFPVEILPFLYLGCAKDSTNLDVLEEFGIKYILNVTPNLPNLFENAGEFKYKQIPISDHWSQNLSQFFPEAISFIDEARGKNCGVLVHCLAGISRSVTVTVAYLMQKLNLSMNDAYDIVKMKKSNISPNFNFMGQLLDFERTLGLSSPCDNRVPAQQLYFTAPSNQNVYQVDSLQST

For assay [4], the target named is T2, Dual specificity protein phosphatase 6. It counts as functional.
Assay [5] has as its target Ephrin type-A receptor 4 (Mus musculus, UniProt Q03137). The experiment in a line: inhibitors of EphA4 binding to KYL peptide, primary screen, biochemical, colorimetric, mouse EphA4 (AID 689). It counts as functional.
Assay [6] addresses Large T antigen (Simian virus 40, UniProt P03070). The assay is classed as functional, Betapolyomavirus macacae.
For assay [7], the target named is T1, Tyrosine-protein phosphatase non-receptor type 7. It counts as functional.
The target in assay [8] is Phospholipase A2 (Homo sapiens, UniProt P04054). It counts as functional.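 Further: confirmatory dose-response counterscreen on phospholipase A2, testing hits that came from an ultra-high-throughput screen for ATG4B inhibitors.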
Sequence of Phospholipase A2 (P04054 whole entry): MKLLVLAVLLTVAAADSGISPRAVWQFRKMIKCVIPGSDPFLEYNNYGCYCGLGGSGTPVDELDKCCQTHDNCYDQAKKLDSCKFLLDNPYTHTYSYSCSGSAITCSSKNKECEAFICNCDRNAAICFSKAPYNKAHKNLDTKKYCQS
The target of assay [9] is Dual specificity protein phosphatase 3 (Homo sapiens, UniProt P51452). The experiment in a line: SAR VHR1 Fluorescent Assay for In Vitro dose response studies. [Related pubchem assays (depositor defined):AID1654, AID1661, AID1878, AID1992, AID2004, AID2070, AID2085]. The assay is classed as functional.
Sequence of Dual specificity protein phosphatase 3 (P51452 whole entry): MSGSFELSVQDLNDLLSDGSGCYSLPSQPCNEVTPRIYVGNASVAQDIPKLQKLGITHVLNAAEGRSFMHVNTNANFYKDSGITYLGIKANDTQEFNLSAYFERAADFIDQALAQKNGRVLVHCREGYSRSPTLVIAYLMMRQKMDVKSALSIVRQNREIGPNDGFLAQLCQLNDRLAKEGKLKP
Assay [10] can be described thus: cytotoxicity in HPDE-C7 cells, cell-based, fluorescence, HTS (AID 430). It counts as functional. The note with it: Homo sapiens.
Assay [11] is described as follows: cytotoxicity in KRAS-transformed pancreatic duct cells, primary screen, cell-based, fluorescence, HTS (AID 431).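 Further: cell line used: HPDE-C7K.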 The assay is classed as functional. The note with it: Homo sapiens.
Assay [12] addresses T3, Cysteine protease ATG4B (Homo sapiens, UniProt Q9Y4P1).
T3 sequence (Q9Y4P1 whole entry): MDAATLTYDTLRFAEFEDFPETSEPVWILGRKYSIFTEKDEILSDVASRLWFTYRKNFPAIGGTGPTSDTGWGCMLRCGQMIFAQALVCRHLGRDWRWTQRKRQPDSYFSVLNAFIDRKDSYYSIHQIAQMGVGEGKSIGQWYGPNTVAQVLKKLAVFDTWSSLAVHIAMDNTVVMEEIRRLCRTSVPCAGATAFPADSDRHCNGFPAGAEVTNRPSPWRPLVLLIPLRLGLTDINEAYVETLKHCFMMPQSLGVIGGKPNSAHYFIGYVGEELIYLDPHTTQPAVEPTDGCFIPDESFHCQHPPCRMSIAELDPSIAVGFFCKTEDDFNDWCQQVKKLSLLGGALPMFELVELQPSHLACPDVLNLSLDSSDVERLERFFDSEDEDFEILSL
The assay is classed as functional.

For assay [13], the system named is T-cell. The experiment in a line: inhibitors of CD8+ T cell–vesicle binding, dose response, mouse 2C CD8+ T cells, flow cytometry (AID 485284). The assay is classed as functional.
In assay [14] the target is T4, Coagulation factor XII (Homo sapiens, UniProt P00748).
T4 sequence (P00748 whole entry): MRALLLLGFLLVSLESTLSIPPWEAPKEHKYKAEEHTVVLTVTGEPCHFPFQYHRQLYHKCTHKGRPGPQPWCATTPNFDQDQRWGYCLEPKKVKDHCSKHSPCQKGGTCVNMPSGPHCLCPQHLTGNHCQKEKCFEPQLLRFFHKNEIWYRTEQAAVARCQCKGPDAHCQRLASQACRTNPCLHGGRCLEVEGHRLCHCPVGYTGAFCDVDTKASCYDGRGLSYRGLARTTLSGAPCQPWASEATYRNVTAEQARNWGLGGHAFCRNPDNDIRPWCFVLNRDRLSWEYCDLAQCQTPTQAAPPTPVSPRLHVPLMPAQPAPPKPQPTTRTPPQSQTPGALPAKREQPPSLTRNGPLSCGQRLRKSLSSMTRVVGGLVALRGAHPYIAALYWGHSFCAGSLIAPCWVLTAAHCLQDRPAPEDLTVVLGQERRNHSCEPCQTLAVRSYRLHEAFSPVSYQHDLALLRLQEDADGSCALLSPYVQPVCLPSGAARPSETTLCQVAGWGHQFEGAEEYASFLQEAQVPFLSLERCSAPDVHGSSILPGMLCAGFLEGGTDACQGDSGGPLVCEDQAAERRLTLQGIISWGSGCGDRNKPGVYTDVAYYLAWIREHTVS
The experiment in a line: Factor XIIa Dose Response Confirmation from Single Well HTS. [Related pubchem assays (depositor defined):AID701]. The assay is classed as functional.

For assay [15], the system named is BJ. The experiment in a line: cytotoxicity toward Ras-transformed BJeLR fibroblasts, dose response, cell-based, alamar blue fluorescence, cherrypicked samples (AID 2631).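 Further: confirmatory dose-response assay in RAS-dependent BJ fibroblasts engineered with TERT, LT and ST, with cytotoxicity read by fluorescence.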 It counts as functional. As to conditions: Homo sapiens. On the technique in general: Resazurin is reduced to fluorescent resorufin, in cell work by metabolically active cells.
The target in assay [16] is Ion channel NompC (Danio rerio, UniProt Q7T1G6). The assay is described as follows: Dose response cell-based high-throughput screening assay for agonists of the transient receptor potential channel N1 (TRPN1). [Related pubchem assays (depositor defined):AID1424, AID1448]. It counts as functional.
Sequence of Ion channel NompC (Q7T1G6 whole entry): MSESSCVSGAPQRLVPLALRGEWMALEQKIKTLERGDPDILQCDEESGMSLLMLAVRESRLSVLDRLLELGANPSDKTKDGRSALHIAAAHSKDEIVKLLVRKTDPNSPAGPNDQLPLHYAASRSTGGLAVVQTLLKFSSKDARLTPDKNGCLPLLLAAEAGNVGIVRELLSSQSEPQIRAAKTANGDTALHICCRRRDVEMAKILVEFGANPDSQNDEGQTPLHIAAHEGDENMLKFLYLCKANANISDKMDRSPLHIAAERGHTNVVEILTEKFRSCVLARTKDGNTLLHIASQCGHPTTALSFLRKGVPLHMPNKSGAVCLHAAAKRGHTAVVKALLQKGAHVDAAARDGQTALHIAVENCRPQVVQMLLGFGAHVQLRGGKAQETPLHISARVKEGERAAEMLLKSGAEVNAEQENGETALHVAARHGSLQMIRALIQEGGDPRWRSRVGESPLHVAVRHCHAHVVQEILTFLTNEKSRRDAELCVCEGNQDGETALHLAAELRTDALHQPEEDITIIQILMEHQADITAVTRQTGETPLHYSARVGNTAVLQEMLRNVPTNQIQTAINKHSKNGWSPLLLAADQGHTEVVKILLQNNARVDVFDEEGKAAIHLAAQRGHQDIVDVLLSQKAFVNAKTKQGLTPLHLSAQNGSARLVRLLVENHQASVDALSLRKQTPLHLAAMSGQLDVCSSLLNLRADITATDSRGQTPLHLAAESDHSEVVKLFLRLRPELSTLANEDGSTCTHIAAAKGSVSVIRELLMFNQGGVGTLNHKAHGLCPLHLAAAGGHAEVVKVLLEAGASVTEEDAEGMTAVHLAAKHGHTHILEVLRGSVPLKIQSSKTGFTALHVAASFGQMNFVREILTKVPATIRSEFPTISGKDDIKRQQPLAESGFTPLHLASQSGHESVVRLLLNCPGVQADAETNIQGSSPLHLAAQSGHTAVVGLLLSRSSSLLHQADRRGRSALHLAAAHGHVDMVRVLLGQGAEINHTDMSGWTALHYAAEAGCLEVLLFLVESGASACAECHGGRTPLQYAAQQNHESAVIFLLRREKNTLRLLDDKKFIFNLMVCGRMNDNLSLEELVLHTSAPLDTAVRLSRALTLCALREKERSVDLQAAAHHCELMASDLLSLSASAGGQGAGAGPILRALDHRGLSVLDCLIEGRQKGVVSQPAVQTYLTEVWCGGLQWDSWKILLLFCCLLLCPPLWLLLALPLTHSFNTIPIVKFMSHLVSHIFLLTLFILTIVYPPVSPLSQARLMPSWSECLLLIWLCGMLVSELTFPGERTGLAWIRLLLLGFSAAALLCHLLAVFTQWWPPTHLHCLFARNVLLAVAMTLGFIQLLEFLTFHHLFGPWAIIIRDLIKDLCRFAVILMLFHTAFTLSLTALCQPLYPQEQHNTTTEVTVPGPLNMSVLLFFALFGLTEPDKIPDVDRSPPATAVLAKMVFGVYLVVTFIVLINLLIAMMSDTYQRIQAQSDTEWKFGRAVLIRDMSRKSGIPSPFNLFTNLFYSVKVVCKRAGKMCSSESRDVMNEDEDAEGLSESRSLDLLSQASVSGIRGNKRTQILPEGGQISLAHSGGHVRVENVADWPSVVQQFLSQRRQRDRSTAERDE
Assay [17] addresses T5, Mucolipin-3 (Homo sapiens, UniProt Q8TDD5).
T5 sequence (Q8TDD5 whole entry): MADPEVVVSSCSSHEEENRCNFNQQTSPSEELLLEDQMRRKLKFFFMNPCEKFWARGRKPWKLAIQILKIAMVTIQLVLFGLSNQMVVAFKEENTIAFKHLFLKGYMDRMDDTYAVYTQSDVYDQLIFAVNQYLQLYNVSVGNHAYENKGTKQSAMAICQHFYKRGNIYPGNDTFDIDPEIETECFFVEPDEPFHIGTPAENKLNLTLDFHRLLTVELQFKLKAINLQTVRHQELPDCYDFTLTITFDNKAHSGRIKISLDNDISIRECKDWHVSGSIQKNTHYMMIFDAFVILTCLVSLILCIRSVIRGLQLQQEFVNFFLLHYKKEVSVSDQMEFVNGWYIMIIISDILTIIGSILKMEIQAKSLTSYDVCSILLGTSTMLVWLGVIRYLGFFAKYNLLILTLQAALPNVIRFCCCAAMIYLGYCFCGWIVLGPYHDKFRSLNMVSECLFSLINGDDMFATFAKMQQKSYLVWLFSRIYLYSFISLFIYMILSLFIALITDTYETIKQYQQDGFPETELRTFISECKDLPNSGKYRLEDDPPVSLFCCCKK
The experiment in a line: Fluorescence counterscreen assay for […] agonists: dose response cell-based high-throughput screening assay to identify agonists of the transient receptor potential channel ML3 (TRPML3). [Related pubchem assays: 1424, 1448 ]. The assay is classed as functional. (A counterscreen serves to expose hits that act by an unwanted route or on another target.)

For assay [18], the target named is T6, Short transient receptor potential channel 4 (Mus musculus, UniProt Q9QUQ5).
T6 sequence (Q9QUQ5 whole entry): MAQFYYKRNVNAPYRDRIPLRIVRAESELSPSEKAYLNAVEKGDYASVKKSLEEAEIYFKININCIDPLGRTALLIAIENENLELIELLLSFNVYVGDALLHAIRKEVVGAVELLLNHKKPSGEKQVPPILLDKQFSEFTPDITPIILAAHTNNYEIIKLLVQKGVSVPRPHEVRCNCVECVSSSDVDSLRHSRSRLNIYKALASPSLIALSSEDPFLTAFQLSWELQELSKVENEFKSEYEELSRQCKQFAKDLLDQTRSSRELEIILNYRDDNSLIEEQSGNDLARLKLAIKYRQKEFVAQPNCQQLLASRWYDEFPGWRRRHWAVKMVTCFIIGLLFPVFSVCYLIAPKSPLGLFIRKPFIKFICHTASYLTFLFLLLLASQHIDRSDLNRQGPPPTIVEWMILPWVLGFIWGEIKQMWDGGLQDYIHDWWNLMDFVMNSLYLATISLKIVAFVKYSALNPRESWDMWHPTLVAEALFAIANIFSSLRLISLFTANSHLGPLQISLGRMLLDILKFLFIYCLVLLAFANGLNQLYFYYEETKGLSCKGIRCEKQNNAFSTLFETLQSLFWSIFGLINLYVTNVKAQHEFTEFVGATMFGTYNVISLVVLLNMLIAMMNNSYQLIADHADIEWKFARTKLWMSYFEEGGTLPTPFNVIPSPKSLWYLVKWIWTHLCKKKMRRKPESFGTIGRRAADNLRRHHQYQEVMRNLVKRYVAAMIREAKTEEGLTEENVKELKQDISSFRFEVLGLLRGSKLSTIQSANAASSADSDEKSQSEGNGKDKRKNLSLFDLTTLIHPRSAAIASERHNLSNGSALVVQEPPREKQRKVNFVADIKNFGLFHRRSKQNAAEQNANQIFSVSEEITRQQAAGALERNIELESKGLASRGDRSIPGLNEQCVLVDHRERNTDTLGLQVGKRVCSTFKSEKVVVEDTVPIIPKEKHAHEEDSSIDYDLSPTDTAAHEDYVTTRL
The experiment in a line: TRPC4 positive allosteric modulators, dose response, cell-based, HEK293 TRPC4/mu-opioid, Fluo-4 calcium, EC20 DAMGO (AID 434941).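 Further: HEK293 cells coexpressing TRPC4 and mu opioid receptor stimulated by EC20 DAMGO.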 It counts as functional.

Assay [19] concerns Vero. The experiment in a line: host cell cytotoxicity of antiviral hits, dose response, cytotoxicity control for West Nile virus antiviral project, secondary assay (AID 1650). The assay is classed as functional. The note with it: Chlorocebus sabaeus.
For assay [20], the target named is T7, Ubiquitin-conjugating enzyme E2 N (Homo sapiens, UniProt P61088).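 Further: Dose-response confirmation in a TR-FRET assay detecting UBC13-driven polyubiquitin chain formation, inhibition measured.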
T7 sequence (P61088 whole entry): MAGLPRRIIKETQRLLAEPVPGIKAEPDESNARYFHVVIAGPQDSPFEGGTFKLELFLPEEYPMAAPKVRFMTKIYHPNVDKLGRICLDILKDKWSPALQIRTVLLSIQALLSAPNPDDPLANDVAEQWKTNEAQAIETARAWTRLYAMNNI
It counts as functional.

The nature of assay [21]: cytotoxicity toward NIH3T3 fibroblasts, dose response, counter-screen, cell-based, ATP luminescence, mouse fibroblasts (AID 2010).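 Further: cells exposed to compound for about 90 hours before reading.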 The assay is classed as functional.
Assay [22] can be described thus: inhibitors of intracellular T. cruzi replication, confirmation, NIH3T3 host cells, beta-gal luminescence (AID 2044).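 Further: intracellular parasites grown in NIH/3T3 mouse fibroblasts as host cells; luminescent beta-galactosidase reporter signal from transgenic T. cruzi replicating inside host cells; inhibitors lower the luminescence signal.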 It counts as functional, cell-based.

Sequence of Ephrin type-A receptor 4 (Q03137 whole entry): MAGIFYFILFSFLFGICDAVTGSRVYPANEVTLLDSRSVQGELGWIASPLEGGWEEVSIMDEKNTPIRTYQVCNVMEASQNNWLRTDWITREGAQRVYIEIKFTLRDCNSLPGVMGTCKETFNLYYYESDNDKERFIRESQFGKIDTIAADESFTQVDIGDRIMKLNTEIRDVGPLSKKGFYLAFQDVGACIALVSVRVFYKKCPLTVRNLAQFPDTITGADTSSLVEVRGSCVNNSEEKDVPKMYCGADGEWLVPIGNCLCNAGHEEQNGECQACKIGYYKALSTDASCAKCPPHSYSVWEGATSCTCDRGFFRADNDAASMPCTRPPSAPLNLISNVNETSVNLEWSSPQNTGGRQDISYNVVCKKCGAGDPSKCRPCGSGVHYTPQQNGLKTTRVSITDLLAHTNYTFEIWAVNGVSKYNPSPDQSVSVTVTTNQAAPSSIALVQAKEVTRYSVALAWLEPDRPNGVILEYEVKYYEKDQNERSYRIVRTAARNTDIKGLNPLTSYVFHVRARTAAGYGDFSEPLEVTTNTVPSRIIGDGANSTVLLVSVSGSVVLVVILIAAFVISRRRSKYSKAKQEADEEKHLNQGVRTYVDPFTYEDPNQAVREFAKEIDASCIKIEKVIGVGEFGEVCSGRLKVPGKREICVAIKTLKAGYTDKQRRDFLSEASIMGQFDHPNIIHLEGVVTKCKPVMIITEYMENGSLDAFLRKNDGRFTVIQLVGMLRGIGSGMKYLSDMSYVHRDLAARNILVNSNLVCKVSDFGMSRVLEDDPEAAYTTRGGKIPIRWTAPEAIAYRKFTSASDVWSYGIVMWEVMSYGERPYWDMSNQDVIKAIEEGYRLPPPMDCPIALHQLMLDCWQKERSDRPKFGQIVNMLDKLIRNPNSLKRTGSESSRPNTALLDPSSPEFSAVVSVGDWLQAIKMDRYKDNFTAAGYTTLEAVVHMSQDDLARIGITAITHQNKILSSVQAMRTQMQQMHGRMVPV
Sequence of Large T antigen (P03070 whole entry): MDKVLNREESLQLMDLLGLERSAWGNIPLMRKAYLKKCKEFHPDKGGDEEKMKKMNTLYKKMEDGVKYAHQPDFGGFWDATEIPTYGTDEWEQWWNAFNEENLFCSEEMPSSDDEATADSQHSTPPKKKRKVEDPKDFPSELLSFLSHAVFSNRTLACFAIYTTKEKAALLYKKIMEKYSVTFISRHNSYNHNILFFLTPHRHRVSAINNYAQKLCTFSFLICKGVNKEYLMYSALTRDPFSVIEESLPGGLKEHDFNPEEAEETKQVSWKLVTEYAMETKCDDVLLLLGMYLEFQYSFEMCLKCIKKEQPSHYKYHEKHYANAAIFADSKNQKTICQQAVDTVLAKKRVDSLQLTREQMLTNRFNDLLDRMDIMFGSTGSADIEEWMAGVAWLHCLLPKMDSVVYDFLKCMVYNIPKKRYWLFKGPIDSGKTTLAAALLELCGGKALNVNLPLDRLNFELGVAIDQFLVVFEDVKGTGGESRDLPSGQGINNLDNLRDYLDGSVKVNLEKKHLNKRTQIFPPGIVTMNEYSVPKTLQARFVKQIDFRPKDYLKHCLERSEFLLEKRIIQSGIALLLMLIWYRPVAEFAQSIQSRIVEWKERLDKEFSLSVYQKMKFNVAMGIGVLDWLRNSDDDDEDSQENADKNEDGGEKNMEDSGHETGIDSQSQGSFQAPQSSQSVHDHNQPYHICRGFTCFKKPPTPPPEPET

The term IC50 denotes the midpoint of a concentration-inhibition curve. Usually EC50 stands for the concentration needed to bring the measured effect to its halfway point. Regarding `Clc1ccccc1CSc1nnc(-c2ccco2)c(-c2ccco2)n1`, the half-inhibitory concentration (IC50) in assay [1] was 0.329 µM (active); in [2], > 100 µM (not active); in [3], 31.2 µM (active); in [4] it was 24.2 µM (active); in assay [5], 2.46 µM (active); in assay [6], 54.4 µM (active). For the same molecule, the IC50 was 10.4 µM (active) in [7], 7.53 µM (active) in [8], 19.7 µM (active) in [9] and 11.4 µM (active) in assay [12]. In addition, the EC50 in assay [10] was 15 µM (active); in assay [11] it was 15.4 µM (active).

Take `Cc1cccc(NC(=O)C2CCN(S(=O)(=O)c3c(C)nc(O)nc3O)CC2)c1`: the EC50 in assay [13] is 8.65 µM (active).

Regarding `O=C(c1cn(-c2ccccc2)nc1-c1ccncc1)n1nnc2ccccc21`, the IC50 in assay [14] is 0.973 µM (active).

`COc1ccc2[nH]c3c(NCCC4=CCCCC4)ncnc3c2c1`: the EC50 in assay [15] was > 133 µM (inactive); in assay [16] it was > 29.9 µM (inactive); in [17], > 29.9 µM (not active).

For `CCC1(C)NC(=O)N(CC(=O)N2N=C(c3ccccc3)CC2c2ccc(OC)cc2)C1=O` (stereo not given), in [13], the EC50 was 16.1 µM (active).

Turning to `Cc1cc2oc(C(=O)N(Cc3ccccc3)C3CCS(=O)(=O)C3)cc(=O)c2cc1Cl` (stereo not given), in assay [18], the half-maximal effective concentration (EC50) was 3.76 µM (active).

As a reminder, the CC50 is the concentration that lowers cell viability or growth by half. Take `CCCCN(CC)CCNC(=O)c1cc2c(=O)n(C)c3ccccc3c2s1`: the EC50 in assay [18] was 0.07 µM (active); in [21] it was > 60 µM (not active); in assay [22], 2.29 µM (active). Also, the CC50 in assay [19] is 69 µM (active). Besides, the IC50 in assay [20] is > 20 µM (inactive).

For the molecule `COc1cc(OC)cc(-c2nnc(SCc3cccc(C(=O)O)c3)o2)c1`, the IC50 in assay [14] was > 50 µM (inactive).
